Tests used:
[1] = system: large milkweed bug; experiment: Initial insecticidal activity, milkweed bug; type: in vivo, Oncopeltus fasciatus (Dallas); details: Oncopeltus fasciatus, 48-hour exposure, read-out: % Kill, Milkweed Bug
Text: (§1) a. Initial Insecticidal Activity
(§2) In this test, a candidate insecticide, in solution, is applied to either infested or uninfested plants or containers by spraying or dipping. (The preferred test procedure varies with insect species. The dipping method is better than the spraying method, and vice versa, for certain species of insects. Also some species are better adapted to the test by infesting after the chemical treatment rather than before.) Once the tests have been established, a 48-hour exposure period is observed before reading the tests. Insect species included in these tests are Mexican bean beetle (Epilachna varivestis Mulsant), pea aphid [Acyrthosiphon pisum (Harris)], southern armyworm [Spodoptera eridania (Cramer)], twospotted spider mite (Tetranychus urticae Koch), large milkweed bug [Oncopeltus fasciatus (Dallas)], plum curculio [Conotrachelus nenuphar (Herbst)], confused flour beetle (Tribolium confusum Jacquelin duVal) and granary weevil [Sitophilus granarius (Linnaeus)]. Test results are set forth in Table I. A control sample, comprising the solution without the candidate insecticide, is also included.

[2] = system: plum curculio; experiment: Initial insecticidal activity, plum curculio; type: in vivo, Conotrachelus nenuphar (Herbst); details: Conotrachelus nenuphar, 48-hour exposure, read-out: % Kill, Plum Curculio
Text: as §1, §2

[3] = system: Mexican bean beetle; experiment: Initial insecticidal activity, Mexican bean beetle; type: in vivo, Epilachna varivestis Mulsant; details: Epilachna varivestis, 48-hour exposure, read-out: % Kill, Mexican Bean Beetle
Text: as §1, §2

[4] = system: pea aphid; experiment: Initial insecticidal activity, pea aphid; type: in vivo, Acyrthosiphon pisum (Harris); details: Acyrthosiphon pisum, 48-hour exposure, read-out: % Kill, Pea Aphid
Text: as §1, §2

[5] = system: southern armyworm; experiment: Initial insecticidal activity, southern armyworm; type: in vivo, Spodoptera eridania (Cramer); details: Spodoptera eridania, 48-hour exposure, read-out: % Kill, Southern Armyworm
Text: as §1, §2

[6] = system: twospotted spider mite; experiment: Initial insecticidal activity, twospotted spider mite; type: in vivo, Tetranychus urticae Koch; details: Tetranychus urticae, 48-hour exposure, read-out: % Kill, Twospotted Spider Mite
Text: as §1, §2

[7] = system: large milkweed bug; experiment: Seven-day residual insecticidal activity, milkweed bug; type: in vivo, Oncopeltus fasciatus (Dallas); details: Oncopeltus fasciatus, 48-hour exposure, read-out: % Kill, Milkweed Bug
Text: (§3) b. Seven-Day Residual Insecticidal Activity
(§4) In this test, a candidate insecticide, in solution, is applied to uninfested plants or containers by dipping or spraying. A seven-day holding period is necessary before infestation. A 48-hour exposure period is observed before evaluation of the tests. The insect species used in this type of test are the same as those listed under initial activity.

[8] = system: plum curculio; experiment: Seven-day residual insecticidal activity, plum curculio; type: in vivo, Conotrachelus nenuphar (Herbst); details: Conotrachelus nenuphar, 48-hour exposure, read-out: % Kill, Plum Curculio
Text: as §3, §4

[9] = system: confused flour beetle; experiment: Seven-day residual insecticidal activity, confused flour beetle; type: in vivo, Tribolium confusum Jacquelin duVal; details: Tribolium confusum, 48-hour exposure, read-out: % Kill, Confused Flour Beetle
Text: as §3, §4

[10] = system: Mexican bean beetle; experiment: Seven-day residual insecticidal activity, Mexican bean beetle; type: in vivo, Epilachna varivestis Mulsant; details: Epilachna varivestis, 48-hour exposure, read-out: % Kill, Mexican Bean Beetle
Text: as §3, §4

[11] = system: pea aphid; experiment: Seven-day residual insecticidal activity, pea aphid; type: in vivo, Acyrthosiphon pisum (Harris); details: Acyrthosiphon pisum, 48-hour exposure, read-out: % Kill, Pea Aphid
Text: as §3, §4

[12] = system: Mexican bean beetle; experiment: Systemic insecticidal activity (soil/water), Mexican bean beetle; type: in vivo, Epilachna varivestis Mulsant; details: Epilachna varivestis, 48-hour exposure, read-out: % Kill, Mexican Bean Beetle
Protocol: (§5) c. Systemic Insecticidal Acitivity (Soil/Water)
(§6) In this test, a candidate insecticide, in solution, is added to the soil of either uninfested pinto bean seedlings (Phaseolus vulgaris) or uninfested broad bean seedlings (Vicia faba var. Windsor). The plant species used depend on the insect species in the test. Usually, a 72-hour translocation period before infestation is required, followed by a 48-hour exposure period, before evaluation of the tests. The insect species used in the systemic tests are Mexican bean beetle, southern armyworm, pea aphid, and twospotted spider mite.

[13] = system: pea aphid; experiment: Systemic insecticidal activity (soil/water), pea aphid; type: in vivo, Acyrthosiphon pisum (Harris); details: Acyrthosiphon pisum, 48-hour exposure, read-out: % Kill, Pea Aphid
Protocol: as §5, §6

[14] = system: twospotted spider mite; experiment: Systemic insecticidal activity (soil/water), twospotted spider mite; type: in vivo, Tetranychus urticae Koch; details: Tetranychus urticae, 48-hour exposure, read-out: % Kill, Twospotted Spider Mite
Protocol: as §5, §6

[15] = system: German cockroaches; experiment: Level I immersion test, German cockroaches; type: in vivo, Blattella germanica (Linnaeus); details: GC (male), 5 mg/milliliter; for mortality at 5000 µg/mL: Blattella germanica, 18-24 hours, read-out: % Kill; for % Knockdown: 30 minutes after immersion
Protocol: (§7) e. Insecticidal Activity Against House Flies and German Cockroaches
Compounds of this invention were tested in a Level I test at 5 mg. of active compounds/milliliter of a solution of 40% acetone -- 60% water.
In this test a group of ten house flies (Musca domestica Linnaeus) were completely immersed in 25 ml. of the insecticidal test solution. After 10 seconds of immersion, the test solution is removed. The house flies are then transferred to holding cages lines with paper toweling. In the case of the house flies, the knockdown counts were recorded 10 minutes after termination of the immersion. The percent kill was recorded after 18-24 hours.
The same Level I test technique was employed using male German cockroaches [Blattella germanica (Linnaeus)]. In this case, the knockdown counts were recorded 30 minutes after the termination of the immersion.

[16] = system: German cockroaches; experiment: Level II topical test, German cockroaches; type: in vivo, Blattella germanica (Linnaeus); details: GC (male), one microgram topically per insect; for mortality at 0.001 mg: Blattella germanica, topical, read-out: % Kill; for % Knockdown: 30 minutes
Protocol: as §7
In a Level II test the compounds of this invention were tested for insecticidal activity against female house flies (resistant) and male German cockroaches. Ten insects were anesthetized with carbon dioxide and placed in a container for about 2 hours, during which time the insects recovered to normal activity. The container confining the insects is fitted with a plunger which is used to force the insects against a nylon mesh at one end of the container. One microliter of an acetone solution containing one microgram of the candidate insecticide was applied topically to each insect. The plunger was withdrawn and the insects were allowed to move freely about the container. Knockdown counts were recorded 10 minutes after treatment of house flies and 30 minutes after treatment of cockroaches.

CCN(SN(C)C(=O)Oc1cccc2c1OC(C)(C)C2)P(=O)(OC)OC [5(c), 2,3-dihydro-2,2-dimethyl-7-benzofuranyl [(N-dimethoxyphosphinyl) (N-ethyl)aminosulfenyl][methyl]carbamate]
69%: mortality at 156 ppm [5]
100%: mortality at 39 ppm [1] | mortality at 156 ppm [1] | mortality at 1250 ppm [1] | mortality at 1250 ppm [2] | mortality at 156 ppm [3] | mortality at 1250 ppm [3] | mortality at 156 ppm [4] | mortality at 1250 ppm [4] | mortality at 1250 ppm [5] | mortality at 1250 ppm [6] | mortality at 156 ppm [7] | mortality at 1250 ppm [7] | mortality at 1250 ppm [10] | mortality at 39 ppm [12] | mortality at 156 ppm [12] | mortality at 156 ppm [13] | mortality at 5000 µg/mL [15] | % Knockdown [15]
47%: mortality at 156 ppm [6]
6%: mortality at 39 ppm [6] | mortality at 39 ppm [10]
0%: mortality at 39 ppm [4] | mortality at 39 ppm [5] | mortality at 39 ppm [7] | mortality at 39 ppm [8] | mortality at 156 ppm [8] | mortality at 39 ppm [9] | mortality at 156 ppm [9] | mortality at 1250 ppm [9] | mortality at 39 ppm [11] | mortality at 156 ppm [11] | mortality at 39 ppm [13] | mortality at 0.001 mg [16] | % Knockdown [16]
70%: mortality at 156 ppm [10]
7%: mortality at 39 ppm [14]
24%: mortality at 156 ppm [14]
50%: mortality at 39 ppm [2]
62%: mortality at 1250 ppm [11]
78%: mortality at 39 ppm [3]
85%: mortality at 156 ppm [2]
80%: mortality at 1250 ppm [8]

CC(C)OP(=O)(OC(C)C)N(C)SN(C)C(=O)Oc1cccc2c1OC(C)(C)C2 [6(c), 2,3-Dihydro-2,2-dimethyl-7-benzofuranyl [(N-diisopropoxyphosphinyl) (N-methyl)aminosulfenyl][methyl]carbamate]
19%: mortality at 156 ppm [14]
4%: mortality at 39 ppm [14]
5%: mortality at 39 ppm [7] | mortality at 1250 ppm [11]
23%: mortality at 156 ppm [6]
38%: mortality at 156 ppm [10]
6%: mortality at 39 ppm [5] | mortality at 39 ppm [6] | mortality at 39 ppm [10]
25%: mortality at 156 ppm [7]
94%: mortality at 156 ppm [3]
0%: mortality at 39 ppm [2] | mortality at 39 ppm [8] | mortality at 156 ppm [8] | mortality at 39 ppm [9] | mortality at 156 ppm [9] | mortality at 1250 ppm [9] | mortality at 39 ppm [11] | mortality at 156 ppm [11] | mortality at 0.001 mg [16] | % Knockdown [16]
45%: mortality at 156 ppm [2]
95%: mortality at 39 ppm [1]
100%: mortality at 156 ppm [1] | mortality at 1250 ppm [1] | mortality at 1250 ppm [2] | mortality at 39 ppm [3] | mortality at 1250 ppm [3] | mortality at 1250 ppm [4] | mortality at 1250 ppm [5] | mortality at 1250 ppm [6] | mortality at 1250 ppm [7] | mortality at 1250 ppm [8] | mortality at 1250 ppm [10] | mortality at 39 ppm [12] | mortality at 156 ppm [12] | mortality at 39 ppm [13] | mortality at 156 ppm [13] | mortality at 5000 µg/mL [15] | % Knockdown [15]
60%: mortality at 156 ppm [4]
28%: mortality at 39 ppm [4]
73%: mortality at 156 ppm [5]

Source: patent US4024277A, “Phosphoro-aminosulfenyl derivatives of benzofuran carbamates” (priority 1975, dated 1977)
